Data on 14 compounds can be found in PubChem BioAssay (NCI).

Holding throughout (assay): DTP human tumour cell line panel, 48 h
The test system of assay [1] is SF-539 CNS.
The test system of assay [2] is KM12 colon.
Assay [3] has as its system SK-MEL-5 melanoma.
Assay [4] concerns HOP-62 NSCLC.
Assay [5] has as its system DU-145 prostate.
In assay [6] the test system is UO-31 renal.
For assay [7], the system named is UACC-62 melanoma.
In assay [8] the test system is MDA-MB-231 breast.

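Where inhibition never reached the appropriate level, the endpoint shown equals the highest concentration tested. Otherwise, values were interpolated linearly from a five-concentration, 48-hour dose response in 96-well plates. The concentration for 50% growth inhibition is given as GI50. TGI marks complete inhibition of growth.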

Consider `Cc1ccc(C[P+](c2ccccc2)(c2ccccc2)c2ccccc2)cc1`, for which the GI50 (commonly the concentration giving 50% growth inhibition) was 2.15 µM in assay [1]; 0.438 µM in assay [2]; 0.321 µM in assay [3]; 1.55 µM in assay [4]; 1.38 µM in assay [5]; 6.08 µM in assay [6]. Further, the GI50 in assay [7] was 0.907 µM; in assay [8], 2.54 µM. The concentration for total growth inhibition (TGI) (commonly the concentration at which net growth stops) in assay [1] is more than 46.4 µM; in assay [2], 4.5 µM; in assay [3], 1.27 µM; in assay [4], 6.28 µM; in assay [5], 43.4 µM; in assay [6], 39.4 µM. Further, the values for the concentration for total growth inhibition (TGI) in assay [7] and in assay [8] were 14.1 µM and 29.3 µM, respectively.
`COc1cc2ncn(-c3cc(OCc4ccccc4S(C)(=O)=O)c(C#N)s3)c2cc1OC`: the GI50 was more than 25 µM in assay [1]; more than 25 µM in assay [2]; more than 25 µM in assay [3]; more than 10.8 µM in assay [4]; more than 25 µM in assay [5]; more than 25 µM in assay [6]. Also, the GI50 in assay [7] and in assay [8] was more than 25 µM in each case. Besides, the TGI is more than 25 µM in assay [1]; more than 25 µM in assay [2]; more than 25 µM in assay [3]; more than 20.8 µM in assay [4]; more than 25 µM in assay [5]; more than 25 µM in assay [6]. Also, the TGI in assay [7] and in assay [8] was more than 25 µM in each case.
Regarding `Cc1ccc(/C(=C/C=C(C#N)C#N)Sc2ccccn2)cc1`, the GI50 in assay [1] was 2.08 µM; in assay [2], 3.33 µM; in assay [3], 2.51 µM; in assay [4], 6.5 µM; in assay [5], 2.28 µM; in assay [6], 3.21 µM. In addition, the GI50 in assay [7] was 2.51 µM; in assay [8], 2.3 µM. The total growth inhibition concentration (TGI) in assay [1] turned out to be 6.44 µM; in assay [2], 20.2 µM; in assay [3], 7.55 µM; in assay [4], 18 µM; in assay [5], 6.06 µM; in assay [7] it was 7.23 µM. The compound also showed a TGI in assay [8] of 7.45 µM.
As for `NC1=NC(c2ccc(F)cc2)C2=C(N1)c1ccc3ccccc3c1OCC2` (configuration not stated), the GI50 in assay [1] is 0.343 µM; in assay [2], 4.45 µM; in assay [3] it was 5.01 µM; in assay [4] it was 23.5 µM; in assay [5], more than 100 µM; in assay [6], more than 100 µM. The results for the GI50 in assay [7] and in assay [8] were 3.14 µM and 47.4 µM, respectively. The TGI is 2.45 µM in assay [1]; more than 100 µM in assay [2]; more than 100 µM in assay [3]; more than 100 µM in assay [4]; more than 100 µM in assay [5]; more than 100 µM in assay [6]. The total growth inhibition concentration (TGI) was 30.9 µM in assay [7] and more than 100 µM in assay [8].
For `COc1ccc(/C=C\c2cc(OC)c(OC)c(OC)c2)cc1OCC(=O)Nc1nc2ccc(OC(F)(F)F)cc2s1`, the GI50 was 2.28 µM in assay [1]; 4.48 µM in assay [2]; 3.26 µM in assay [3]; 7.09 µM in assay [4]; 4.11 µM in assay [5]; 4.37 µM in assay [6]. Further, the GI50 in assay [7] is 5.11 µM; in assay [8] it was 5.16 µM. In addition, the TGI in assay [1] is 6.13 µM; in assay [2], 51.5 µM; in assay [3], 22.9 µM; in assay [4], more than 100 µM; in assay [5] it was more than 100 µM; in assay [6] it was more than 100 µM. Also, the concentration for total growth inhibition (TGI) in assay [7] and in assay [8] was more than 100 µM in each case.
Turning to `CC1(C)N[P+]2(Nc3ccccc3O2)OC1=O` (configuration not stated), the concentration for total growth inhibition (TGI) in assay [1], in assay [2], in assay [3], in assay [4], in assay [5] and in assay [6] was more than 100 µM in each case. Moreover, the concentration for total growth inhibition (TGI) in assay [7] is 64 µM; in assay [8], more than 100 µM.
Regarding `O=C1OCC2=C1C(c1cccc(C(F)(F)F)c1)c1cc3c(cc1N2CCO)CCC3` (configuration not stated), the GI50 was 0.132 µM in assay [1]; 0.157 µM in assay [2]; 0.156 µM in assay [3]; 0.178 µM in assay [4]; 0.195 µM in assay [5]; 0.323 µM in assay [6]. Moreover, the GI50 in assay [7] is 0.174 µM; in assay [8], 0.223 µM. In addition, the TGI was 0.46 µM in assay [1]; 6.37 µM in assay [2]; 2.18 µM in assay [3]; 7.74 µM in assay [4]; 5.66 µM in assay [5]; 9.01 µM in assay [6]. For the same compound, the TGI amounted to 9.15 µM in assay [7] and 6.76 µM in assay [8].
Consider `CCN1CCC(CC(=O)Nc2n[nH]c3nc(-c4cccs4)c(Br)cc23)CC1`, for which the GI50 is 9.22 µM in assay [1]; 5.81 µM in assay [2]; 6.37 µM in assay [3]; 10.6 µM in assay [4]; 8.5 µM in assay [5]; 9.05 µM in assay [6]. Further, the GI50 in assay [7] is 5.26 µM; in assay [8] it was 14.7 µM. Also, the total growth inhibition concentration (TGI) in assay [1] is more than 22.2 µM; in assay [2] it was 13.8 µM; in assay [3] it was more than 14.6 µM; in assay [4] it was more than 25 µM; in assay [5], more than 25 µM; in assay [6], more than 25 µM. Besides, the results for the concentration for total growth inhibition (TGI) in assay [7] and in assay [8] were 11 µM and more than 25 µM, respectively.
For the compound `C=C(C)[C@@H]1CC[C@]2(C(=O)NCCNCCNCCN)CC[C@]3(C)[C@H](CC[C@@H]4[C@@]5(C)CCC(=O)C(C)(C)[C@@H]5CC[C@]43C)[C@@H]12`, the GI50 in assay [1] is 7.53 µM; in assay [2], 8.47 µM; in assay [3], 6.99 µM; in assay [4], 7.91 µM; in assay [5], 7.47 µM; in assay [6], 6.85 µM. In addition, the GI50 in assay [7] is 8.96 µM; in assay [8] it was 8.04 µM. Also, the TGI in assay [1] amounted to 14.6 µM; in assay [2], 16.6 µM; in assay [3], 13.5 µM; in assay [4], 16.6 µM; in assay [5], 14.1 µM; in assay [6], 14.5 µM. The concentration for total growth inhibition (TGI) in assay [7] is 19.1 µM; in assay [8], 15.8 µM.
Turning to `COc1ccc2c(c1)C(=O)c1c-2n(CCCN2CCOCC2)c(=O)c2cc([N+](=O)[O-])ccc12`, the GI50 in assay [1], in assay [2], in assay [3], in assay [4], in assay [5] and in assay [6] was less than 0.01 µM throughout. Also, the figures for the 50% growth inhibitory concentration (GI50) in assay [7] and in assay [8] were less than 0.01 µM and 0.661 µM, respectively. For the same compound, the total growth inhibition concentration (TGI) is less than 0.01 µM in assay [1]; 0.544 µM in assay [2]; less than 0.01 µM in assay [3]; 0.364 µM in assay [4]; 0.0106 µM in assay [5]; 0.0572 µM in assay [6]. The TGI in assay [7] was determined as 0.0291 µM; in assay [8], 17.3 µM.
For the compound `O=C1C=CC(=O)c2c1ncc1c2nc2sccn21`, the GI50 in assay [1] was 12.4 µM; in assay [2], more than 100 µM; in assay [3], 16.9 µM; in assay [4], 21.2 µM; in assay [5] it was 12.8 µM; in assay [6], 13.8 µM. Also, the GI50 in assay [7] was 21.8 µM; in assay [8] it was 14.6 µM. In addition, the TGI in assay [1] was 42.4 µM; in assay [2], more than 100 µM; in assay [3] it was 37.3 µM; in assay [4], 47.4 µM; in assay [5] it was 40 µM; in assay [6], 72.3 µM. Moreover, the figures for the TGI in assay [7] and in assay [8] were 45.2 µM and 39 µM, respectively.
As for `Cc1ccccc1C(C(=O)NC1CCCCC1)N(C(=O)Cn1ccnc1C)c1cccc(F)c1` (configuration not stated), the GI50 in assay [1] was 33.1 µM; in assay [2], more than 100 µM; in assay [3] it was more than 100 µM; in assay [4], more than 60.4 µM; in assay [5], more than 76.6 µM; in assay [6], more than 51.6 µM. Further, the GI50 in assay [7] is 59.3 µM; in assay [8], 35.8 µM. Moreover, the total growth inhibition concentration (TGI) was more than 66.5 µM in assay [1]; more than 100 µM in assay [2]; more than 100 µM in assay [3]; more than 100 µM in assay [4]; more than 100 µM in assay [5]; more than 100 µM in assay [6]. For the same compound, the concentration for total growth inhibition (TGI) in assay [7] and in assay [8] was more than 100 µM throughout.
Consider `CNCCOC(=O)/C=C1/CCC2C(C(O)CC3C(C)(C(=O)OC)CCCC23C)C1C` (configuration not stated), for which the 50% growth inhibitory concentration (GI50) in assay [1] is 0.0206 µM; in assay [2], 0.0339 µM; in assay [3], 0.0163 µM; in assay [4], 0.013 µM; in assay [5], 0.016 µM; in assay [6], 0.0187 µM. In addition, the concentration for 50% growth inhibition (GI50) in assay [7] is 0.0235 µM; in assay [8], 0.0604 µM. In addition, the concentration for total growth inhibition (TGI) in assay [1] was 0.0408 µM; in assay [2], 0.111 µM; in assay [3] it was 0.0321 µM; in assay [4], 0.0259 µM; in assay [5], 0.0305 µM; in assay [6], 0.0372 µM. In addition, the TGI came to 0.0559 µM in assay [7] and 0.229 µM in assay [8].
Turning to `CC(C)=CC1CC(C)C2(CCC3(C)CC4C(C(=O)CC4(C)O)/C(C=O)=C\CC32)O1` (configuration not stated), the TGI in assay [1] was determined as 0.239 µM; in assay [2], 0.262 µM; in assay [3], 0.588 µM; in assay [4], 0.274 µM; in assay [5] it was 0.267 µM; in assay [6], 0.0989 µM. In addition, the total growth inhibition concentration (TGI) is 0.368 µM in assay [7] and 0.237 µM in assay [8].
